Measured values taken from patent publication EP0304063B1, “Quinoline type mevalonolactones” (NISSAN CHEMICAL INDUSTRIES LTD., priority 1987, dated 1989).

Assays:
[1] = test system: cholesterol biosynthesis in vivo; assay: Test C: Inhibition of cholesterol biosynthesis in vivo; parameters: species or system Male Sprague-Dawley rats; conditions: relative to the control group, rats
Test D: Acute toxicity = conditions: mouse, in vivo, po; orally administered 1000 mg/kg, 0.5% CMC suspension, ICR male mice, after seven days
Protocol: A 0.5% CMC suspension of a test compound was orally administered to ICR male mice (group of three mice). The acute toxicity was determined based on the mortality after seven days. With compound I-57, I-58, I-59, I-511, I-512, I-513, I-514, I-515, I-517 and I-523 of the present invention, the mortality was 0% even when they were orally administered in an amount of 1000 mg/kg.

Row | Compound | mortality at 168 h (Test D: Acute toxicity) [%] | also measured
1 | CC[C@H](C)C(=O)O[C@H]1C[C@H](O)C=C2C=C[C@H](C)[C@H](CC[C@@H](O)C[C@@H](O)CC(=O)O)[C@H]21 [CS-514, reference compound] |  | percent decrease of counts ([1]; oral administration of 10 mg/kg): 55%
2 | CC(C)c1nc2ccccc2c(-c2ccccc2F)c1/C=C/C(O)CC(O)CC(=O)O (stereo not drawn) [Compound I-57] | 0 | 
3 | Cc1ccc2c(-c3ccccc3)c(/C=C/C(O)CC(O)CC(=O)O)c(C(C)C)nc2c1 (stereo not drawn) [Compound I-58] | 0 | 
4 | CC(C)c1nc2ccccc2c(-c2ccc(Cl)cc2)c1/C=C/C(O)CC(O)CC(=O)O (stereo not drawn) [Compound I-59] | 0 | 
5 | Cc1ccc(-c2c(/C=C/C(O)CC(O)CC(=O)O)c(C(C)C)nc3ccccc23)cc1 (stereo not drawn) [Compound I-511] | 0 | 
6 | CC(C)c1nc2ccc(Cl)cc2c(-c2ccccc2Cl)c1/C=C/C(O)CC(O)CC(=O)O (stereo not drawn) [Compound I-512] | 0 | 
7 | CC(C)c1nc2ccccc2c(-c2ccc(C(F)(F)F)cc2)c1/C=C/C(O)CC(O)CC(=O)O (stereo not drawn) [Compound I-513] | 0 | 
8 | Cc1cc(-c2c(/C=C/C(O)CC(O)CC(=O)O)c(C(C)C)nc3ccccc23)ccc1F (stereo not drawn) [Compound I-514] | 0 | 
9 | Cc1cc(C)cc(-c2c(/C=C/C(O)CC(O)CC(=O)O)c(C(C)C)nc3ccccc23)c1 (stereo not drawn) [Compound I-515] | 0 | 
10 | CCc1nc2ccccc2c(-c2ccc(F)cc2)c1/C=C/C(O)CC(O)CC(=O)O (stereo not drawn) [Compound I-517] | 0 | 
11 | O=C(O)CC(O)CC(O)/C=C/c1c(C2CC2)nc2ccccc2c1-c1ccc(F)cc1 (stereo not drawn) [Compound I-520] |  | percent decrease of counts ([1]; oral administration of 0.05 mg/kg): 55%
12 | O=C(O)CC(O)CC(O)/C=C/c1c(-c2ccccc2)nc2ccc(Cl)cc2c1-c1ccccc1 (stereo not drawn) [Compound I-523] | 0 | 
